Experimental data as given in patent publication US8846746B2, “Pyrazole compound and pharmaceutical use thereof” (Japan Tobacco Inc., priority 2011, dated 2014).

target: human SGLT1 (Homo sapiens (Human), UniProt P13866); assay: SGLT1 inhibitory activity: 14C-AMG uptake into CHO-K1 cell line stably expressing human SGLT1; format: cell-based; details: 14C-AMG uptake, CHO-K1 cells expressing human SGLT1
Experimental: SGLT1 inhibitory activity of a test compound (IC50 value) was calculated based on an amount of intake into a cell of labeled α-methyl-D-glucopyranoside (^14C-AMG) which is transported by SGLT1.
1) Construction of Human SGLT1 Expression Plasmid
A DNA fragment containing human SGLT1, wherein NheI recognition and cleavage sequence was added upstream of a Kozac consensus sequence of the vector; and a stop codon (TAG) and a SalI recognition and cleavage sequence was added just downstream of a coding region of the human SGLT1, was amplified by PCR using pCMV6-hSGLT1 (OriGene) as a template. The purified DNA fragment was cleaved by restriction enzymes NheI and SalI, and the obtained fragment was ligated into pcDNA3.1 (+) which was cleaved by NheI and XhoI to construct human SGLT1 expression plasmid.
2) Establishment of Stable Cell Lines Expressing Human SGLT1
A human SGLT1 expression plasmid pcDNA-hSGLT1 was transfected into CHO-K1 cells by Lipofectamine-2000 (Invitrogen). The cells were cultured in the presence of G418 (Nakalai tesque) and drug-resistant cells were selected. A cell line having the highest S/B ratio of an amount of ^14C-AMG uptake per cell treated by solvent to an amount of ^14C-AMG uptake per cell treated by phlorizin (SGLT inhibitor) was selected from the drug-resistant cells as a stable cell lines expressing human SGLT1.
3) Evaluation of SGLT1 Inhibitory Activity
The stable cell line expressing human SGLT1 was seeded at 5×10^4 cells/well on BioCoat™ Poly-D-Lysine 96 well plate with Lid (Becton Dickinson and Company) and cultured at 37° C. under 5% CO2 overnight. The medium was replaced with 100 μL/well of a Na (−) buffer (140 mM choline chloride, 2 mM KCl, 1 mM MgCl2, 1 mM CaCl2, 10 mM HEPES, 5 mM Tris, pH7.4) followed by incubation for 20 minutes at 37° C. under 5% CO2. After removing the Na (−) buffer, a test compound solution which was prepared from Na (+) buffer (140 mM NaCl, 2 mM KCl, 1 mM MgCl2, 1 mM CaCl2, 10 mM HEPES, 5 mM Tris, pH7.4) containing BSA was added thereto at 40 μL/well. In addition, Na (+) buffer containing 8 kBq of ^14C-AMG and 2 mM AMG was added thereto at 40 μL/well, and was mixed well. Na (−) buffer containing BSA was added to a blank well at 40 μL/well and additionally adding a Na (+) buffer containing 8 kBq of ^14C-AMG and 2 mM AMG, and was mixed well. Cells were incubated for 1 hour at 37° C. under 5% CO2. After the reaction, the cells were washed twice with 100 μL/well of iced wash buffer (100 mM AMG, 140 mM choline chloride, 2 mM KCl, 1 mM MgCl2, 1 mM CaCl2, 10 mM HEPES, 5 mM Tris, pH7.4), then lysed in 50 μL/well of a 0.2N aqueous solution of NaOH. The cell lysate was transferred to OptiPlate96 (Perkin-Elmer) and 100 μL/well of MicroScint-40 (Perkin-Elmer) was dispensed. The radioactivity was counted by TOPCOUNT NXT (Perkin-Elmer).
A data was obtained by deducting the average value (CPM) of blank wells from the average value (CPM) of each treated well. The inhibition ratio (%) was calculated by the following formula: inhibition rate (%)=[(A−B)/A]×100, where A is a data of the solvent control, and B is a data of a test compound.

Sequence of human SGLT1 (P13866 whole entry): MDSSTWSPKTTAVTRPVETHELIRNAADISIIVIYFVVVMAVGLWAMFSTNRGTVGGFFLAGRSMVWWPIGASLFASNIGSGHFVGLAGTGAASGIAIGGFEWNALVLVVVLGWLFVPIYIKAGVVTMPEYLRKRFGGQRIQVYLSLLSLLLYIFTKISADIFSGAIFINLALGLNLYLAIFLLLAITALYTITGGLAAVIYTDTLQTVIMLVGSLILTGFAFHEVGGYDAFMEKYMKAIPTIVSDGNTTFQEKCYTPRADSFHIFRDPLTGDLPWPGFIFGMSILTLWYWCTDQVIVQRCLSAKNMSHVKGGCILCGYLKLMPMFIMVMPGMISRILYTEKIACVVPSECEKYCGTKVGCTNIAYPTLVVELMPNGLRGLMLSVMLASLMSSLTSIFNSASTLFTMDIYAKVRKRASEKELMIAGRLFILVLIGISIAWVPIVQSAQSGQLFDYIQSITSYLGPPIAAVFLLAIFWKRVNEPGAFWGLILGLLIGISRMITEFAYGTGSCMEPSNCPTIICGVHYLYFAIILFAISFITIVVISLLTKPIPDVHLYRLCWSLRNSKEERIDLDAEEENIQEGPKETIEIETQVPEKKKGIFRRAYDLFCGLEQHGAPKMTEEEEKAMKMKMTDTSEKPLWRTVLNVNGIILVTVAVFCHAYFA

Compound | IC50 [nM]
CCCc1cccc(-c2cc(NC(=O)[C@H]3CNC(=O)C3)nn2CCc2ccccc2)c1 [Example 107] | 44
C[C@H]1C(=O)NC[C@@H]1C(=O)Nc1cc(-c2cccc(OC(F)(F)F)c2)n(-c2ccccc2Cl)n1 [Example 193] | 1.3
CCCc1cccc(-c2cc(NC(=O)[C@H]3CNC(=O)C3)nn2-c2cccc(OC)c2)c1 [Example 123] | 5
CCCc1cccc(-c2cc(NC(=O)[C@H]3CNC(=O)C3)nn2-c2cccc(OCC(=O)O)c2)c1 [Example 124] | 170
C[C@H]1C(=O)NC[C@@H]1C(=O)Nc1cc(-c2cccc(OC(F)(F)F)c2)n(CCC(F)(F)F)n1 [Example 191] | 54
O=C1CCC(C(=O)Nc2cc(-c3ccccc3)n(-c3ccccc3)n2)CN1 (racemic) [Example 10] | 5500
O=C1C[C@@H](C(=O)Nc2cc(-c3cccc(OCC(F)(F)F)c3)n(-c3cccc(F)c3)n2)CN1 [Example 206] | 4.8
CCCc1cccc(-c2cc(NC(=O)[C@H]3CNC(=O)C3)nn2-c2ccccc2)c1 [Example 22] | 4.7
O=C1C[C@@H](C(=O)Nc2cc(-c3cccc(OC(F)(F)F)c3)n(C3CCCCCC3)n2)CN1 [Example 85] | 50
CCCn1nc(NC(=O)C2CNC(=O)C2)cc1-c1ccccc1 (racemic) [Example 12] | 4400
CCCc1cccc(-c2cc(NC(=O)[C@H]3CNC(=O)N3)nn2-c2ccccc2)c1 [Example 8, (R)-2-oxoimidazolidine-4-carboxylic acid[1-phenyl-5-(3-propylphenyl)-1H-pyrazol-3-yl]amide] | 20
CCCc1cccc(-c2cc(NC(=O)[C@H]3CNC(=O)C3)nn2C2CCCC2)c1 [Example 64] | 12
C[C@H]1C(=O)NC[C@@H]1C(=O)Nc1cc(-c2cccc(OCC(F)(F)F)c2)n(-c2ccc(F)cc2)n1 [Example 212] | 5.8
CCCc1cccc(-c2cc(NC(=O)[C@H]3CNC(=O)C3)nn2-c2cccc(C)c2)c1 [Example 76] | 1.7
C[C@H]1C(=O)NC[C@@H]1C(=O)Nc1cc(-c2cccc(C(F)(F)F)c2)n(-c2ccc(F)cc2)n1 [Example 202] | 12
CCC(F)(F)c1cccc(-c2cc(NC(=O)[C@H]3CNC(=O)[C@@H]3C)nn2CCOC(C)C)c1 [Example 176] | 55
Cc1cccc(-c2cc(NC(=O)[C@H]3CNC(=O)C3)nn2-c2ccccc2)c1 [Example 57] | 230
CCCc1cccc(-c2cc(NC(=O)[C@H]3CNC(=O)C3)nn2CCC2CCCCC2)c1 [Example 113] | 12
C[C@H]1C(=O)NC[C@@H]1C(=O)Nc1cc(-c2cccc(OC(F)(F)F)c2)n(-c2ccc(Cl)cc2)n1 [Example 152] | 9.3
CC1(C)CCCC(c2cc(NC(=O)[C@H]3CNC(=O)C3)nn2-c2ccccc2)C1 (single isomer, unassigned) [Example 89] | 140
COC(C)(C)c1cccc(-c2cc(NC(=O)[C@@H]3CNC(=O)C3)nn2-c2ccccc2)c1 [Example 83] | 11
CCC(F)(F)c1cccc(-c2cc(NC(=O)C3CCC(=O)NC3)nn2-c2cccc(F)c2)c1 (single isomer, unassigned) [Example 171] | 8.3

same assay, conditions: 14C-AMG uptake, CHO-K1 cells stably expressing human SGLT1

IC50 [nM] | Compound
24 | C[C@@H](OCc1cc(F)cc(-c2cc(NC(=O)[C@@H]3CCC(=O)N3)nn2-c2ccccc2)c1)C(F)(F)F [Example 555]
55 | O=C1C[C@H](C(=O)Nc2cc(-c3cc(Cl)cc(COCC(F)(F)F)c3)n(-c3ccc(F)cc3)n2)CN1 [Example 589]
5.5 | C[C@@H](OCc1cccc(-c2cc(NC(=O)[C@H]3CNC(=O)C3)nn2-c2ccccc2)c1)C(F)(F)F [Example 561]
17 | CCCc1cccc(-c2cc(NC(=O)[C@@H]3CNC(=O)C3)nn2-c2ccccc2CC)c1 [Example 358]
5.3 | COc1ccc(F)c(-n2nc(NC(=O)[C@@H]3CNC(=O)C3)cc2-c2cccc(COCC(F)(F)F)c2)c1 [Example 522]
7.85 | CCCc1cccc(-c2cc(NC(=O)[C@@H]3CNC(=O)C3)nn2-c2cccc(OCCOC)c2)c1 [Example 406]
4.3 | CCOc1cc(-n2nc(NC(=O)[C@@H]3CNC(=O)C3)cc2-c2cccc(COCC(F)(F)F)c2)ccc1F [Example 417]
8 | CCCc1cccc(-c2cc(NC(=O)[C@@H]3CNC(=O)C3)nn2-c2cccc(OCCO)c2)c1 [Example 408]
10.9 | CCCc1cccc(-c2cc(NC(=O)[C@@H]3CNC(=O)C3)nn2-c2cccc(OC3CCC3)c2)c1 [Example 412]
2.1 | CCOc1ccc(F)c(-n2nc(NC(=O)[C@@H]3CNC(=O)C3)cc2-c2cccc(COCC(F)(F)F)c2)c1 [Example 460]
12 | CC(C)Oc1cccc(-n2nc(NC(=O)[C@@H]3CNC(=O)C3)cc2-c2cccc(COCC(F)(F)F)c2)c1F [Example 482]
13 | CCCc1cccc(-c2cc(NC(=O)[C@@H]3CNC(=O)C3)nn2-c2ccc(F)c(OCCO)c2)c1 [Example 415]
4.2 | COc1cccc(-n2nc(NC(=O)[C@@H]3CNC(=O)C3)cc2-c2cccc(CO[C@H](C)C(F)(F)F)c2)c1F [Example 484]
1.1 | CCOc1ccc(F)c(-n2nc(NC(=O)[C@@H]3CNC(=O)C3)cc2-c2cccc(CO[C@H](C)C(F)(F)F)c2)c1 [Example 463]
4.75 | CCCOc1cc(-n2nc(NC(=O)[C@@H]3CNC(=O)C3)cc2-c2cccc(COCC(F)(F)F)c2)ccc1F [Example 419]
3.3 | COc1cccc(-n2nc(NC(=O)[C@@H]3CNC(=O)C3)cc2-c2cccc(CO[C@H](C)C(F)(F)F)c2)c1 [Example 451]

More lines, now with the values behind:

Compound | IC50 [nM]
CC(C)(C)Oc1cccc(-c2cc(NC(=O)[C@@H]3CNC(=O)C3)nn2-c2ccccc2)c1 [Example 290] | 5.5
CC(C)(C)COc1cccc(-c2cc(NC(=O)[C@H]3CNC(=O)C3)nn2-c2ccccc2)c1 [Example 289] | 4.5
CC(C)Oc1cccc(-c2cc(NC(=O)[C@H]3CNC(=O)C3)nn2-c2ccccc2)c1 [Example 321] | 22
CC(C)COCc1cccc(-c2cc(NC(=O)[C@@H]3CNC(=O)C3)nn2-c2ccccc2)c1 [Example 314] | 15
CCC(C)(C)Oc1cccc(-c2cc(NC(=O)[C@@H]3CNC(=O)C3)nn2-c2ccccc2)c1 [Example 291] | 5.1
CCCc1cccc(-c2cc(NC(=O)[C@@H]3CNC(=O)C3)nn2-c2ccccc2C)c1 [Example 261] | 3.77

same assay, conditions: CHO-K1, at 0.1 uM

Compound | inhibition at 0.1 µM [%]
O=C1C[C@H](C(=O)Nc2cc(-c3cccc(C(=O)NCC(F)(F)F)c3)n(-c3ccccc3)n2)CN1 [Example 433] | 8
CCCNC(=O)c1cccc(-c2cc(NC(=O)[C@@H]3CNC(=O)C3)nn2-c2ccccc2)c1 [Example 429] | 40
C[C@@H](OCc1ccc(F)c(-c2cc(NC(=O)[C@@H]3CNC(=O)C3)nn2-c2ccccc2)c1)C(F)(F)F [Example 427] | 49
C[C@@H](OCc1cc(F)cc(-c2cc(NC(=O)[C@H]3CCC(=O)N3)nn2-c2ccccc2)c1)C(F)(F)F [Example 554] | 32
CCCN(C)C(=O)c1cccc(-c2cc(NC(=O)[C@@H]3CNC(=O)C3)nn2-c2ccccc2)c1 [Example 430] | 8

same assay, conditions: CHO-K1, at 0.3 uM

Compound | inhibition at 0.3 µM [%]
CCCc1cccc(-c2cc(NC(=O)[C@@H]3CN(CC)C(=O)N3)nn2-c2ccccc2)c1 [Example 329] | 35

same assay, conditions: at 0.3 uM

Compound | human SGLT1 % Inhibition [%]
CCCc1cccc(-c2cc(NC(=O)C3CCCC(=O)NC3)nn2-c2ccccc2)c1 (stereo not drawn) [Example 256] | 3
